“And” between values parts separate entries of the source, which are not always exact repeats. Equal entries are not always repeated. Inconclusive results and toxic doses are left out.
Tested on: BDF1 mice, P388 leukemia ip, median survival T/C
Test: NCI In Vivo Anticancer Drug Screen. Data for tumor model P388 Leukemia (intraperitoneal) in B6D2F1 (BDF1) mice
Conditions: endpoint: median survival time, higher = longer survival
Method in brief: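 Vehicle-dosed animals serve as the reference; survival of compound-dosed, tumour-implanted mice is divided by it.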

[1] = dose: 50.0 mg/kg/injection, schedule: Q01DX009 (ip), vehicle: saline
[2] = dose: 100.0 mg/kg/injection, schedule: Q01DX001 (ip), vehicle: saline with Tween-80
[3] = dose: 200.0 mg/kg/injection, schedule: Q01DX001 (ip), vehicle: saline with Tween-80
[4] = dose: 400.0 mg/kg/injection, schedule: Q01DX001 (ip), vehicle: saline with Tween-80

With `c1ccc([P+](c2ccccc2)(c2ccccc2)c2ccccc2)cc1` the T/C (dose: 0.06 mg/kg/injection, schedule: Q01DX009 (ip), vehicle: saline) was 116 % of control, the T/C (dose: 0.09 mg/kg/injection, schedule: Q01DX009 (ip), vehicle: saline) was 122 % of control and the T/C (dose: 0.13 mg/kg/injection, schedule: Q01DX009 (ip), vehicle: saline) was 100 % of control. For the same molecule, the T/C (dose: 0.2 mg/kg/injection, schedule: Q01DX009 (ip), vehicle: saline) was 100 % of control, the T/C (dose: 0.3 mg/kg/injection, schedule: Q01DX009 (ip), vehicle: saline) was 104 % of control and the T/C (dose: 0.4 mg/kg/injection, schedule: Q01DX009 (ip), vehicle: saline) was 150 % of control. The T/C (dose: 0.41 mg/kg/injection, schedule: Q01DX009 (ip), vehicle: saline) was 165 % of control, the T/C (dose: 0.44 mg/kg/injection, schedule: Q01DX009 (ip), vehicle: saline) was 120 % of control and the T/C (dose: 0.62 mg/kg/injection, schedule: Q01DX009 (ip), vehicle: saline) was 150 % of control and 163 % of control and 170 % of control. For the same molecule, the T/C (dose: 0.66 mg/kg/injection, schedule: Q01DX009 (ip), vehicle: saline) was 171 % of control, the T/C (dose: 0.67 mg/kg/injection, schedule: Q04DX003 (ip), vehicle: saline) was 118 % of control and the T/C (dose: 0.93 mg/kg/injection, schedule: Q01DX009 (ip), vehicle: saline) was 150 % of control and 165 % of control. The T/C (dose: 1.0 mg/kg/injection, schedule: Q01DX009 (ip), vehicle: Klucel (hydroxypropylcellulose) (HPC)) was 155 % of control, the T/C (dose: 1.0 mg/kg/injection, schedule: Q01DX009 (ip), vehicle: saline) was 180 % of control and the T/C (dose: 1.35 mg/kg/injection, schedule: Q04DX003 (ip), vehicle: saline) was 122 % of control. For the same molecule, the T/C (dose: 1.5 mg/kg/injection, schedule: Q01DX009 (ip), vehicle: Klucel (hydroxypropylcellulose) (HPC)) was 158 % of control, the T/C (dose: 1.5 mg/kg/injection, schedule: Q01DX009 (ip), vehicle: saline) was 154 % of control and 164 % of control and the T/C (dose: 2.0 mg/kg/injection, schedule: Q01DX009 (ip), vehicle: Klucel (hydroxypropylcellulose) (HPC)) was 157 % of control and 163 % of control. The T/C (dose: 2.25 mg/kg/injection, schedule: Q01DX009 (ip), vehicle: saline) was 164 % of control, the T/C (dose: 3.2 mg/kg/injection, schedule: Q01DX009 (ip), vehicle: Klucel (hydroxypropylcellulose) (HPC)) was 175 % of control and the T/C (dose: 4.0 mg/kg/injection, schedule: Q01DX009 (ip), vehicle: Klucel (hydroxypropylcellulose) (HPC)) was 164 % of control. The T/C (dose: 4.0 mg/kg/injection, schedule: Q04DX003 (ip), vehicle: saline) was 158 % of control and 165 % of control and the T/C (dose: 7.5 mg/kg/injection, schedule: Q01DX009 (ip), vehicle: Klucel (hydroxypropylcellulose) (HPC)) was 89 % of control and 100 % of control.

`COc1ccc2c(c1)CC(=CO)CC2=O.COc1ccc2c(c1)CC/C(=C/O)C2=O.[Cu]` was tested, and the T/C (dose: 25.0 mg/kg/injection, schedule: Q04DX003 (ip), vehicle: saline with Tween-80) was 100 % of control, the T/C (dose: 50.0 mg/kg/injection, schedule: Q04DX003 (ip), vehicle: saline with Tween-80) was 110 % of control and the T/C (dose: 100.0 mg/kg/injection, schedule: Q04DX003 (ip), vehicle: saline with Tween-80) was 90 % of control.

`CCO/C=C1\SC(=S)N(c2ccccc2C)C1=O` was tested, and the T/C (dose: 8.8 mg/kg/injection, schedule: Q04DX003 (ip), vehicle: saline with Tween-80) was 100 % of control, the T/C (dose: 13.2 mg/kg/injection, schedule: Q04DX003 (ip), vehicle: saline with Tween-80) was 104 % of control and the T/C (dose: 20.0 mg/kg/injection, schedule: Q04DX003 (ip), vehicle: saline with Tween-80) was 100 % of control. For the same molecule, the T/C (dose: 25.0 mg/kg/injection, schedule: Q01DX009 (ip), vehicle: Klucel (hydroxypropylcellulose) (HPC)) was 101 % of control, the T/C (dose: 30.0 mg/kg/injection, schedule: Q04DX003 (ip), vehicle: saline with Tween-80) was 104 % of control and the T/C (dose: 88.0 mg/kg/injection, schedule: Q04DX003 (ip), vehicle: saline with Tween-80) was 122 % of control. For the same molecule, the T/C (dose: 300.0 mg/kg/injection, schedule: Q04DX003 (ip), vehicle: saline with Tween-80) was 163 % of control.

With `COc1ccc2c(c1)/C(=C/CCN(C)C)c1ccccc1S2` the T/C (dose: 12.5 mg/kg/injection, schedule: Q01DX009 (ip), vehicle: saline) was 109 % of control, the T/C (dose: 16.5 mg/kg/injection, schedule: Q01DX009 (ip), vehicle: saline) was 118 % of control and the T/C (dose: 37.5 mg/kg/injection, schedule: Q01DX009 (ip), vehicle: saline) was 95 % of control. For the same molecule, the T/C [1] was 118 % of control.

For `CC1(O)Cn2c(nc3nccnc32)S1` (stereo unspecified), the T/C (dose: 25.0 mg/kg/injection, schedule: Q01DX009 (ip), vehicle: saline) was 107 % of control, the T/C [1] was 115 % of control and the T/C (dose: 50.0 mg/kg/injection, schedule: Q04DX003 (ip), vehicle: saline) was 108 % of control. For the same molecule, the T/C (dose: 100.0 mg/kg/injection, schedule: Q04DX003 (ip), vehicle: saline) was 100 % of control.

With `CC(Cl)CNC(=O)Nc1cccc2c1CCCC2` (stereo unspecified) the T/C [2] was 100 % of control, the T/C [3] was 109 % of control and the T/C [4] was 90 % of control.

For `CCOC(=O)c1ccc(Oc2ncc([N+](=O)[O-])s2)cc1`, the T/C (dose: 1.85 mg/kg/injection, schedule: Q01DX009 (ip), vehicle: saline) was 90 % of control, the T/C (dose: 3.71 mg/kg/injection, schedule: Q01DX009 (ip), vehicle: saline) was 100 % of control and the T/C (dose: 7.42 mg/kg/injection, schedule: Q01DX009 (ip), vehicle: saline) was 90 % of control. For the same molecule, the T/C (dose: 10.0 mg/kg/injection, schedule: Q01DX009 (ip), vehicle: saline with Tween-80) was 90 % of control, the T/C (dose: 16.0 mg/kg/injection, schedule: Q01DX009 (ip), vehicle: saline with Tween-80) was 86 % of control and the T/C (dose: 24.0 mg/kg/injection, schedule: Q01DX009 (ip), vehicle: saline with Tween-80) was 95 % of control.

In the case of `Cc1c(O)ccc2c1CCCC2`, the T/C (dose: 50.0 mg/kg/injection, schedule: Q01DX001 (ip), vehicle: saline sonified) is reported as 90 % of control, the T/C (dose: 100.0 mg/kg/injection, schedule: Q01DX001 (ip), vehicle: saline sonified) is reported as 104 % of control and the T/C (dose: 200.0 mg/kg/injection, schedule: Q01DX001 (ip), vehicle: saline sonified) is reported as 100 % of control.

With `COc1ccc(NC(=O)Nc2ccccc2F)cc1` the T/C [2] was 95 % of control, the T/C [3] was 95 % of control and the T/C [4] was 95 % of control.

With `Nc1nnc2cc(F)ccc2n1` the T/C (dose: 50.0 mg/kg/injection, schedule: Q01DX009 (ip), vehicle: Klucel (hydroxypropylcellulose) (HPC)) was 100 % of control, the T/C (dose: 100.0 mg/kg/injection, schedule: Q01DX009 (ip), vehicle: Klucel (hydroxypropylcellulose) (HPC)) was 112 % of control and the T/C (dose: 200.0 mg/kg/injection, schedule: Q01DX009 (ip), vehicle: Klucel (hydroxypropylcellulose) (HPC)) was 102 % of control.

In the case of `O=C1CC2OCC=C3CN4CCC56c7ccccc7N1C5C2C3CC46` (stereo unspecified) (tested in a mixture with another compound), the T/C (dose: 0.5 mg/kg/injection, schedule: Q04DX003 (ip), vehicle: saline + alcohol) is reported as 95 % of control and the T/C (dose: 1.0 mg/kg/injection, schedule: Q04DX003 (ip), vehicle: saline + alcohol) is reported as 110 % of control.

`COCn1cc(C(N)=O)c(=O)c2c(N)nc(SC)nc21` was tested, and the T/C (dose: 100.0 mg/kg/injection, schedule: Q04DX002 (ip), vehicle: saline with Tween-80) was 90 % of control and the T/C (dose: 400.0 mg/kg/injection, schedule: Q04DX002 (ip), vehicle: saline with Tween-80) was 96 % of control.

For `O=C1NS(=O)(=O)c2ccccc21`, the T/C (dose: 50.0 mg/kg/injection, schedule: Q01DX009 (ip), vehicle: saline with Tween-80) was 100 % of control, the T/C (dose: 100.0 mg/kg/injection, schedule: Q01DX009 (ip), vehicle: saline with Tween-80) was 90 % of control and the T/C (dose: 200.0 mg/kg/injection, schedule: Q01DX009 (ip), vehicle: saline with Tween-80) was 103 % of control.
